Results: patent publication US10047103B2, “Imidazothiadiazole and imidazopyrazine derivatives as protease activated receptor 4 (PAR4) inhibitors for treating platelet aggregation” (BRISTOL-MYERS SQUIBB COMPANY, priority 2012, dated 2018)

What was measured:
[1] = tested on: carotid artery thrombosis; assay: cynomolgus monkey electrolytic injury-induced carotid artery thrombosis model; assay type: in vivo; details: arterial thrombosis model in cynomolgus monkeys
human washed platelets = assay: Alpha-thrombin induced platelet aggregation assay; assay type: cell-based; details: 0.1 h, read-out: IC50 for the inhibition of platelet aggregation
Procedure: Example D is an alpha-thrombin-induced platelet aggregation assay. Alpha-thrombin activates both PAR1 and PAR4.
Human blood was collected in ACD (85 mM tri-sodium citrate, 78 mM citric acid, 110 mM D-glucose, pH 4.4) at a ratio of 1.4 ml per 10 ml blood. PRP was isolated by centrifugation at 170 g for 14 minutes and platelets were further pelleted by centrifugation at 1300 g for 6 minutes. Platelets were washed once with 10 ml ACD containing 1 mg/ml bovine serum albumin. Platelets were resuspended at ˜2.5×10^8/ml in Tyrode's Buffer (137 mM NaCl, 2 mM KCl, 1.0 mM MgCl2, 1 mM CaCl2, 5 mM glucose, 20 mM HEPES pH 7.4).
The ability of PAR4 antagonist to inhibit platelet aggregation induced by alpha-thrombin was tested using human washed platelets. […] Aggregation was initiated by addition of 1.5 nM alpha-thrombin (Haematologic Technologies, Essex Junction, Vt.) to 300 μl of washed platelets at stirring speed of 1000 rpm. […] IC50 was calculated using vehicle control as 0% inhibition.

[2] = tested on: carotid artery thrombosis; assay: Cynomolgus monkey electrolytic injury-induced carotid artery thrombosis model; assay type: in vivo; details: oral, 1 to 2 hours before the experiment
From the text: The efficacy of the PAR4 antagonists of the present invention in preventing thrombosis can also be measured in a variety of in vivo assays. Exemplary mammals that can provide models of thrombosis and hemostasis to test the effectiveness of the PAR4 antagonists of the present invention as antithrombotic agents include, but are not limited to, guinea pigs and primates. Relevant efficacy models include, but are not limited to, electrolytic injury-induced carotid artery thrombosis, FeCl3-induced carotid artery thrombosis and arteriovenous-shunt thrombosis. […]
On the day of the study, compounds or vehicles were administered orally at 1 to 2 hours before the experiment. […] Blood pressure and heart rate were monitored to maintain normal vital signs.
Carotid blood flow was measured with an appropriately sized TRANSONIC® flow probe and a TRANSONIC® perivascular flowmeter (TS420 Model, Transonic Systems Inc., Ithaca, N.Y.). It was continuously recorded over a 90-min period to monitor thrombosis-induced occlusion. Integrated carotid blood flow was measured by the area under the flow-time curve. It was expressed as percent of total control carotid blood flow, which would result if control blood flow had been maintained continuously for 90 min. […]

PAR1 = PAR1 (Homo sapiens (Human), UniProt P25116); details: ACS patients, phase III; cited from earlier work
PAR1, sequence (P25116 22-425): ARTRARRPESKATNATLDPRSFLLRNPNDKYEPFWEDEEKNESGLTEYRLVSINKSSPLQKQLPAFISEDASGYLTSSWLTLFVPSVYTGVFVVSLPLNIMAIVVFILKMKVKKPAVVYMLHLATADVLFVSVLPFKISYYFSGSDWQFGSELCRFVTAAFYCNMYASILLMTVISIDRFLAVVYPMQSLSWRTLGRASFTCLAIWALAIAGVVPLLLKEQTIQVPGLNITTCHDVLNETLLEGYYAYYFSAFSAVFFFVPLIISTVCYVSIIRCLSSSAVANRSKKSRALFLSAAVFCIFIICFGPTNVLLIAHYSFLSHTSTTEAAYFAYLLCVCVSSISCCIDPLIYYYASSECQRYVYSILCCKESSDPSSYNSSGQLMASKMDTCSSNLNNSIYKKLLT

Structure (SMILES) | inhibition of thrombus formation / antithrombotic efficacy [1] | IC50 (human washed platelets) [nM] | antithrombotic efficacy in electrically-induced arterial thrombus model (dose response, FIG. 1C) [2] | cardiovascular events (PAR1) | risk of major bleeding (PAR1)
COc1cc(OCc2csc(-c3ccccc3)n2)c2cc(-c3cn4nc(OC)sc4n3)oc2c1 [Example 3, 2-Methoxy-6-(6-methoxy-4-((2-phenylthiazol-4-yl)methoxy)benzofuran-2-yl)imidazo[2,1-b][1,3,4]thiadiazole] | antithrombotic efficacy | 5 | in vivo antithrombotic efficacy |  | 
CCOC(=O)N[C@@H]1CC[C@@H]2[C@@H](C1)C[C@H]1C(=O)O[C@H](C)[C@H]1[C@H]2/C=C/c1ccc(-c2cccc(F)c2)cn1 [vorapaxar] |  |  |  | did not significantly reduce | significantly increased
